Measured values as given in patent US9402398B2, “Herbicidal compounds” (SYNGENTA PARTICIPATIONS AG, priority 2012, dated 2016).

Legend:
Format in all cases: in vivo
[1] = test system: Setaria faberi (SETFA); test: Herbicidal glasshouse test, pre-emergence; conditions: pre-emergence (sprayed after cultivation for one day), 1000 g/h, evaluated after 13 days
Method: (§1) Seeds of a variety of test species are sown in standard soil in pots (Alopecurus myosuroides (ALOMY), Setaria faberi (SETFA), Echinochloa crus-galli (ECHCG), Solanum nigrum (SOLNI), Amaranthus retoflexus (AMARE), Ipomoea hederacea (IPOHE)). After cultivation for one day (pre-emergence) or after 8 days cultivation (post-emergence) under controlled conditions in a glasshouse (at 24/16° C., day/night; 14 hours light; 65% humidity), the plants are sprayed with an aqueous spray solution derived from the formulation of the technical active ingredient in acetone/water (50:50) solution containing 0.5% Tween 20 (polyoxyethelyene sorbitan monolaurate, CAS RN 9005-64-5). Compounds are applied at 1000 g/h. The test plants are then grown in a glasshouse under controlled conditions in a glasshouse (at 24/16° C., day/night; 14 hours light; 65% humidity) and watered twice daily. After 13 days for pre and post-emergence, the test is evaluated for the percentage damage caused to the plant. The biological activities are shown in the following table on a five point scale (5=80-100%; 4=60-79%; 3=40-59%; 2=20-39%; 1=0-19%).

[2] = test system: Solanum nigrum (SOLNI); test: Herbicidal glasshouse test, pre-emergence; conditions: pre-emergence (sprayed after cultivation for one day), 1000 g/h, evaluated after 13 days
Method: as §1

[3] = test system: Echinochloa crus-galli (ECHCG); test: Herbicidal glasshouse test, pre-emergence; conditions: pre-emergence (sprayed after cultivation for one day), 1000 g/h, evaluated after 13 days
Method: as §1

[4] = test system: Amaranthus retoflexus (AMARE); test: Herbicidal glasshouse test, pre-emergence; conditions: pre-emergence (sprayed after cultivation for one day), 1000 g/h, evaluated after 13 days
Method: as §1

[5] = test system: Ipomoea hederacea (IPOHE); test: Herbicidal glasshouse test, pre-emergence; conditions: pre-emergence (sprayed after cultivation for one day), 1000 g/h, evaluated after 13 days
Method: as §1

[6] = test system: Alopecurus myosuroides (ALOMY); test: Herbicidal glasshouse test, pre-emergence; conditions: pre-emergence (sprayed after cultivation for one day), 1000 g/h, evaluated after 13 days
Method: as §1

[7] = test system: Setaria faberi (SETFA); test: Herbicidal glasshouse test, post-emergence; conditions: post-emergence (sprayed after 8 days cultivation), 1000 g/h, evaluated after 13 days
Method: as §1

[8] = test system: Solanum nigrum (SOLNI); test: Herbicidal glasshouse test, post-emergence; conditions: post-emergence (sprayed after 8 days cultivation), 1000 g/h, evaluated after 13 days
Method: as §1

[9] = test system: Echinochloa crus-galli (ECHCG); test: Herbicidal glasshouse test, post-emergence; conditions: post-emergence (sprayed after 8 days cultivation), 1000 g/h, evaluated after 13 days
Method: as §1

[10] = test system: Amaranthus retoflexus (AMARE); test: Herbicidal glasshouse test, post-emergence; conditions: post-emergence (sprayed after 8 days cultivation), 1000 g/h, evaluated after 13 days
Method: as §1

[11] = test system: Ipomoea hederacea (IPOHE); test: Herbicidal glasshouse test, post-emergence; conditions: post-emergence (sprayed after 8 days cultivation), 1000 g/h, evaluated after 13 days
Method: as §1

[12] = test system: Alopecurus myosuroides (ALOMY); test: Herbicidal glasshouse test, post-emergence; conditions: post-emergence (sprayed after 8 days cultivation), 1000 g/h, evaluated after 13 days
Method: as §1

Row | Compound | percentage damage caused to the plant, five point scale, PRE Application SETFA [1] | percentage damage caused to the plant, five point scale, PRE Application SOLNI [2] | percentage damage caused to the plant, five point scale, PRE Application ECHCG [3] | percentage damage caused to the plant, five point scale, PRE Application AMARE [4] | percentage damage caused to the plant, five point scale, PRE Application IPOHE [5] | percentage damage caused to the plant, five point scale, PRE Application ALOMY [6] | percentage damage caused to the plant, five point scale, POST Application SETFA [7] | percentage damage caused to the plant, five point scale, POST Application SOLNI [8] | percentage damage caused to the plant, five point scale, POST Application ECHCG [9] | percentage damage caused to the plant, five point scale, POST Application AMARE [10] | percentage damage caused to the plant, five point scale, POST Application IPOHE [11] | percentage damage caused to the plant, five point scale, POST Application ALOMY [12]
1 | Cc1cc(C(=O)Nc2nnnn2C)c(=O)n(-c2ccc(F)cc2)n1 [Compound 1.014] | 5 (5=80-100%) | 5 (5=80-100%) | 5 (5=80-100%) | 5 (5=80-100%) | 4 (4=60-79%) | 5 (5=80-100%) | 5 (5=80-100%) | 5 (5=80-100%) | 5 (5=80-100%) | 5 (5=80-100%) | 5 (5=80-100%) | 5 (5=80-100%)
2 | Cc1cc(C(=O)Nc2nnnn2C)c(=O)n(Cc2cccc(F)c2)n1 [Compound 1.016] | 5 (5=80-100%) | 5 (5=80-100%) | 4 (4=60-79%) | 5 (5=80-100%) | 4 (4=60-79%) | 2 (2=20-39%) | 1 (1=0-19%) | 5 (5=80-100%) | 4 (4=60-79%) | 5 (5=80-100%) | 3 (3=40-59%) | 4 (4=60-79%)
3 | CCc1ccc(-n2nc(C)cc(C(=O)Nc3nnnn3C)c2=O)cc1 [Compound 1.011] | 5 (5=80-100%) | 5 (5=80-100%) | 5 (5=80-100%) | 5 (5=80-100%) | 4 (4=60-79%) | 5 (5=80-100%) | 5 (5=80-100%) | 5 (5=80-100%) | 5 (5=80-100%) | 5 (5=80-100%) | 5 (5=80-100%) | 5 (5=80-100%)
4 | COc1ccccc1-n1nc(C)cc(C(=O)Nc2nnnn2C)c1=O [Compound 1.004] | 5 (5=80-100%) | 5 (5=80-100%) | 5 (5=80-100%) | 5 (5=80-100%) | 4 (4=60-79%) | 5 (5=80-100%) | 5 (5=80-100%) | 5 (5=80-100%) | 5 (5=80-100%) | 5 (5=80-100%) | 5 (5=80-100%) | 5 (5=80-100%)
5 | Cc1cc(C(=O)Nc2nnnn2C)c(=O)n(-c2ccc(C#N)cn2)n1 [Compound 1.022] | – | – | – | – | – | – | 5 (5=80-100%) | 5 (5=80-100%) | 5 (5=80-100%) | 5 (5=80-100%) | 4 (4=60-79%) | 5 (5=80-100%)
6 | Cc1cc(C(=O)Nc2nnnn2C)c(=O)n(-c2cccc(C#N)c2)n1 [Compound 1.018] | 5 (5=80-100%) | 5 (5=80-100%) | 5 (5=80-100%) | 5 (5=80-100%) | 5 (5=80-100%) | 5 (5=80-100%) | 5 (5=80-100%) | 5 (5=80-100%) | 5 (5=80-100%) | 5 (5=80-100%) | 5 (5=80-100%) | 5 (5=80-100%)
7 | Cc1cc(C(=O)Nc2nnnn2C)c(=O)n(-c2cc(Cl)ccc2C)n1 [Compound 1.019] | 5 (5=80-100%) | 5 (5=80-100%) | 5 (5=80-100%) | 5 (5=80-100%) | 5 (5=80-100%) | 5 (5=80-100%) | 5 (5=80-100%) | 5 (5=80-100%) | 5 (5=80-100%) | 5 (5=80-100%) | 5 (5=80-100%) | 5 (5=80-100%)
8 | C=Cc1ccc(-n2nc(C)cc(C(=O)Nc3nnnn3C)c2=O)cc1 [Compound 1.008] | 5 (5=80-100%) | 5 (5=80-100%) | 4 (4=60-79%) | 5 (5=80-100%) | 2 (2=20-39%) | 5 (5=80-100%) | 5 (5=80-100%) | 5 (5=80-100%) | 5 (5=80-100%) | 5 (5=80-100%) | 5 (5=80-100%) | 5 (5=80-100%)
